In patent US12077503B2, “Substituted cyclic amides and their use as herbicides” (FMC CORPORATION, priority 2015, dated 2024):

Columns and labels:
Format in all cases: in vivo
[1] = tested on: ivy-leaved morning glory (Ipomoea hederacea); assay: Test G Post-Emergence Protocol; conditions: Ipomoea, post-emergence, 312 h, read-out: Morningglory, Ivy-leaved damage rating
How it was run: (§1)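 Scores run 0 (no damage) to 100 (total damage) and were taken 13 days after spraying. Plants had been raised in pots for 8 days under glasshouse control (24/16 °C, 14 h photoperiod, 65% humidity) and then treated at 15.625, 62.5 or 250 g/ha.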

corn (Zea mays) [2] = assay: Test G Post-Emergence Protocol; conditions: Zea mays, post-emergence, 312 h, read-out: Corn damage rating
How it was run: as §1

[3] = tested on: giant foxtail (Setaria faberi); assay: Test G Post-Emergence Protocol; conditions: Setaria faberi, post-emergence, 312 h, read-out: Foxtail, Giant damage rating
How it was run: as §1

[4] = tested on: redroot pigweed (Amaranthus retroflexus); assay: Test G Post-Emergence Protocol; conditions: Amaranthus retroflexus, post-emergence, 312 h, read-out: Pigweed, Redroot damage rating
How it was run: as §1

[5] = tested on: velvetleaf (Abutilon theophrasti); assay: Test G Post-Emergence Protocol; conditions: Abutilon theophrasti, post-emergence, 312 h, read-out: Velvetleaf damage rating
How it was run: as §1

[6] = tested on: barnyardgrass (Echinochloa crus-galli); assay: Test G Post-Emergence Protocol; conditions: Echinochloa crus-galli, post-emergence, 312 h, read-out: Barnyardgrass damage rating
How it was run: as §1

[7] = tested on: ivy-leaved morning glory (Ipomoea hederacea); assay: Test G Pre-Emergence Protocol; conditions: Ipomoea, pre-emergence, 312 h, evaluated after 13 days
How it was run: (§2)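 Scores are visual damage ratings from 0 (no damage) to 100 (total plant kill), taken 13 days after treatment. Compound was sprayed one day post-sowing at 15.625, 62.5 or 250 g/ha in 50:50 acetone/water with 0.5% Tween 20.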

corn (Zea mays) [8] = assay: Test G Pre-Emergence Protocol; conditions: Zea mays, pre-emergence, 312 h, evaluated after 13 days
How it was run: as §2

[9] = tested on: giant foxtail (Setaria faberi); assay: Test G Pre-Emergence Protocol; conditions: Setaria faberi, pre-emergence, 312 h, evaluated after 13 days
How it was run: as §2

[10] = tested on: redroot pigweed (Amaranthus retroflexus); assay: Test G Pre-Emergence Protocol; conditions: Amaranthus retroflexus, pre-emergence, 312 h, evaluated after 13 days
How it was run: as §2

[11] = tested on: velvetleaf (Abutilon theophrasti); assay: Test G Pre-Emergence Protocol; conditions: Abutilon theophrasti, pre-emergence, 312 h, evaluated after 13 days
How it was run: as §2

[12] = tested on: barnyardgrass (Echinochloa crus-galli); assay: Test G Pre-Emergence Protocol; conditions: Echinochloa crus-galli, pre-emergence, 312 h, evaluated after 13 days
How it was run: as §2

[13] = 15.625 g ai/ha, evaluated after 13 days (100=total damage to plant; 0=no damage to plant)
[14] = 62.5 g ai/ha, evaluated after 13 days, 100=total damage to plant, 0=no damage to plant
[15] = 250 g ai/ha, evaluated after 13 days, 100=total damage to plant, 0=no damage to plant

In the case of `C=C(C)c1ccccc1NC(=O)[C@H]1C(=O)N(C)C[C@@H]1c1cccc(C(F)(F)F)c1` (racemic) [Compound 1736], the pest or weed control at 15.625 g/ha [1, 13] is reported as 0%, the pest or weed control at 62.5 g/ha [1, 14] is reported as 0% and the pest or weed control at 250 g/ha [1, 15] is reported as 40%. For the same compound, the plant injury at 15.625 g/ha (corn (Zea mays) [2]; [13]) was 0%, the plant injury at 62.5 g/ha (corn (Zea mays) [2]; [14]) was 0% and the plant injury at 250 g/ha (corn (Zea mays) [2]; [15]) was 70%. For the same compound, the pest or weed control at 15.625 g/ha [3, 13] was 30%, the pest or weed control at 62.5 g/ha [3, 14] was 80% and the pest or weed control at 250 g/ha [3, 15] was 80%. The pest or weed control at 15.625 g/ha [4, 13] was 0%, the pest or weed control at 62.5 g/ha [4, 14] was 0% and the pest or weed control at 250 g/ha [4, 15] was 0%. It also gave a pest or weed control at 15.625 g/ha [5, 13] of 0%, a pest or weed control at 62.5 g/ha [5, 14] of 0% and a pest or weed control at 250 g/ha [5, 15] of 0%. For the same compound, the pest or weed control at 15.625 g/ha [6, 13] was 0%, the pest or weed control at 62.5 g/ha [6, 14] was 30% and the pest or weed control at 250 g/ha [6, 15] was 70%. For the same compound, the pest or weed control at 15.625 g/ha ([7]; 15.625 g ai/ha, read-out: Morningglory, Ivy-leaved damage rating (100=total damage to plant; 0=no damage to plant)) was 0%, the pest or weed control at 62.5 g/ha ([7]; 62.5 g ai/ha, 100=total damage to plant, 0=no damage to plant, read-out: Morningglory, Ivy-leaved damage rating) was 0% and the pest or weed control at 250 g/ha ([7]; 250 g ai/ha, read-out: Morningglory, Ivy-leaved damage rating (100=total damage to plant; 0=no damage to plant)) was 0%. The plant injury at 15.625 g/ha (corn (Zea mays) [8]; 15.625 g ai/ha, read-out: Corn damage rating (100=total damage to plant; 0=no damage to plant)) was 0%, the plant injury at 62.5 g/ha (corn (Zea mays) [8]; 62.5 g ai/ha, 100=total damage to plant, 0=no damage to plant, read-out: Corn damage rating) was 0% and the plant injury at 250 g/ha (corn (Zea mays) [8]; 250 g ai/ha, read-out: Corn damage rating (100=total damage to plant; 0=no damage to plant)) was 60%. The pest or weed control at 15.625 g/ha ([9]; 15.625 g ai/ha, read-out: Foxtail, Giant damage rating (100=total damage to plant; 0=no damage to plant)) was 80%, the pest or weed control at 62.5 g/ha ([9]; 62.5 g ai/ha, 100=total damage to plant, 0=no damage to plant, read-out: Foxtail, Giant damage rating) was 90% and the pest or weed control at 250 g/ha ([9]; 250 g ai/ha, read-out: Foxtail, Giant damage rating (100=total damage to plant; 0=no damage to plant)) was 90%. For the same compound, the pest or weed control at 15.625 g/ha ([10]; 15.625 g ai/ha, read-out: Pigweed, Redroot damage rating (100=total damage to plant; 0=no damage to plant)) was 0%, the pest or weed control at 62.5 g/ha ([10]; 62.5 g ai/ha, 100=total damage to plant, 0=no damage to plant, read-out: Pigweed, Redroot damage rating) was 20% and the pest or weed control at 250 g/ha ([10]; 250 g ai/ha, read-out: Pigweed, Redroot damage rating (100=total damage to plant; 0=no damage to plant)) was 10%. It also gave a pest or weed control at 15.625 g/ha ([11]; 15.625 g ai/ha, read-out: Velvetleaf damage rating (100=total damage to plant; 0=no damage to plant)) of 0%, a pest or weed control at 62.5 g/ha ([11]; 62.5 g ai/ha, 100=total damage to plant, 0=no damage to plant, read-out: Velvetleaf damage rating) of 10% and a pest or weed control at 250 g/ha ([11]; 250 g ai/ha, read-out: Velvetleaf damage rating (100=total damage to plant; 0=no damage to plant)) of 10%. It also gave a pest or weed control at 15.625 g/ha ([12]; 15.625 g ai/ha, read-out: Barnyardgrass damage rating (100=total damage to plant; 0=no damage to plant)) of 0%, a pest or weed control at 62.5 g/ha ([12]; 62.5 g ai/ha, 100=total damage to plant, 0=no damage to plant, read-out: Barnyardgrass damage rating) of 60% and a pest or weed control at 250 g/ha ([12]; 250 g ai/ha, read-out: Barnyardgrass damage rating (100=total damage to plant; 0=no damage to plant)) of 90%.
